In publication PMC11650361 (Archiv Der Pharmazie, 2024):
Where two headings read alike, the source gives them in different places.

What was measured:
[1] = tested on: HEK293T (human embryonic kidney) cells; assay: Cytotoxicity, MTT assay, HEK293T; format: cell-based; details: HEK-293T, MTT, 24 h, mean ± SEM, n = 3, read-out: HEK293T IC50
human erythrocyte AChE = biological target: T1, human erythrocyte AChE (Homo sapiens, UniProt P22303); assay: biochemical; format: biochemical; details: for IC50: human erythrocyte AChE, mean ± SEM, n = 3
T1 construct: purchased Sigma-Aldrich; Milamed, Perm, Russia (supplement); host or cells: human erythrocytes

[2] = tested on: HepG2 cells (human hepatocellular carcinoma); assay: Cytotoxicity, MTT assay, HepG2; format: cell-based; details: HepG2, MTT, 24 h, mean ± SEM, n = 3, read-out: Hep G2 IC50
[3] = ABTS radical cation scavenging activity assay; details: for IC50: concentration reducing ABTS radical by 50%, 1 h; for ABTS^•+‐scavenging activity, TEAC: relative to Trolox, 1 h incubation, n.a. = inactive
Experimental: Data are given for 1 h of incubation of compounds with ABTS^•+. The AOA of the compounds was evaluated as Trolox equivalent antioxidant capacity (TEAC values) as the ratio of the slopes of the concentration–response curves, test compound/Trolox. All tests were performed at least in triplicate in three independent experiments. The IC50 values for the test compounds were also determined.

[4] = tested on: SH‐SY5Y (human neuroblastoma) cells; assay: Cytotoxicity, MTT assay, SH-SY5Y; format: cell-based; details: MTT, 24 h, mean ± SEM, n = 3, read-out: SH‐SY5Y IC50
β‐amyloid (1–42) (Aβ42) = β‐amyloid (1–42) (Aβ42) (Homo sapiens, UniProt P05067); assay: Inhibition of Aβ42 self-aggregation (thioflavin T fluorescence); format: biochemical; details: for inhibition at 100 µM: read-out: Inhibition of Aβ42 self‐aggregation, %
Experimental: Inhibition of Aβ42 self‐aggregation by test compounds was studied using the ThT fluorescence method^[ [67], [68] ^] with minor modifications as described in detail in Makhaeva et al.^[ [16] ^] Lyophilized hexamfluoroisopropanol‐pretreated Aβ42 (GenicBio Limited, 1 mg) was dissolved in DMSO to obtain a stable 500 μM solution. […] Myricetin and propidium iodide in the same concentration were used as references. […] Each assay was run in triplicate.
^c The inhibitory effect of the test compounds toward Aβ42 self-aggregation was determined using the thioflavin T (ThT) fluorescence method ^[5-7] with minor modifications as described in detail in ^[8]. Lyophilized HFIP-pretreated Aβ42 from BACHEM (Bubendorf, Switzerland) was used. […] Myricetin and propidium iodide were used as reference compounds (positive controls). Analyses were performed with a FLUOStar Optima microplate reader (LabTech, Ortenberg, Germany). The inhibition (%) of Aβ42 self-aggregation by the test compounds was calculated by the following equation: […]
where IFi and IFo are the fluorescence intensities obtained for Aβ42 in the presence and in the absence of inhibitor, respectively, after subtracting the fluorescence of respective blanks.

[5] = biological target: T2, PAS of Electrophorus electricus AChE (EeAChE) (Electrophorus electricus, UniProt O42275); format: binding; details: 20 µM compound concentration
T2 construct: purchased Sigma-Aldrich type VI-S; host or cells: electric eel tissue
Experimental: The ability of the test compounds to competitively displace propidium was evaluated by the fluorescence method,^[ [65] ^] as described in detail in Makhaeva et al.^[ [66] ^] […] After 15 min of incubation of the test compounds at a concentration of 20 μM with a 7 μM solution of EeAChE in 1 mM Tris‐HCl buffer, pH 8.0, 25°C, propidium iodide (final concentration 8 μM) was added. Then, the solutions were incubated for 15 min and the fluorescence spectrum was recorded (530 nm (excitation) and 600 nm (emission)). […] Measurements were performed in triplicate on a FLUOStar Optima microplate reader (BMG LabTech).
The 7 μM EeAChE was incubated with the test compound at a concentration of 20 μM in 1 mM Tris-HCl buffer pH 8.0, 25 °C, for 15 min. After that, propidium iodide was added at final concentration of 8 μM. The samples were incubated for 15 min and the fluorescence spectrum (530 nm (excitation) and 600 nm (emission)) was taken. […] The measurements were carried out in triplicate on a FLUOStar Optima microplate reader. The degree of propidium displacement (% displacement) from the PAS of EeAChE was calculated by formula (1):
% Displacement = 100 – (IFAChE+ Propidium + inhibitor / IFAChE + Propidium) × 100 (1),
where IFAChE + Propidium is the fluorescence intensity of the propidium associated with AChE in the absence of the test compound (taken as 100%), and IFAChE + Propidium + inhibitor is the fluorescence intensity of the propidium associated with AChE in the presence of the test compound.

equine serum BChE = biological target: T3, equine serum BChE (Equus caballus, UniProt P81908); assay: biochemical
T3 construct: purchased Sigma-Aldrich; Milamed, Perm, Russia (supplement); host or cells: horse serum

porcine liver CES = assay: In vitro CES inhibition (4-NPA substrate); format: biochemical; details: % inhibition at 20 μM; n.a. = not active
Experimental: The esterase profile of the synthesized conjugates was determined. This included an assessment of their inhibition of cholinergic targets AChE and BChE along with a structurally related enzyme CES (EC 3.1.1.1), which hydrolyzes numerous ester‐containing drugs and is considered as an off‐target for anti‐AD agents.^[ [9], [40] ^] Human erythrocyte AChE, equine serum BChE, and porcine liver CES were used.^[ [40], [41], [42] ^]
Initially, we used a single concentration of 20 µM for all compounds.
^a All experiments were carried out in accordance with the standard protocols approved by IPAС RAS. Human erythrocyte AChE, equine serum BChE were purchased from Milamed (Perm, Russia). Porcine liver CES, substrates, and reference compounds were from Sigma-Aldrich (St. Louis, MO, USA). The activity of enzymes was measured spectrophotometrically, as described in detail in ^[1] using ATCh iodide, BTCh iodide, and 4-NPA as substrates for AChE, BChE, and CES, respectively. Experimental conditions: K,Na-phosphate buffer (100 mM), 25 °С, pH 7.5 for AChE and BChE and pH 8.0 for CES assay. Measurements were carried out on a FLUOStar Optima microplate reader (BMG Labtech, Ortenberg, Germany). Test compounds were dissolved in DMSO; final concentration of solvent in the incubation mixture was 2% (v/v).

AChE = biological target: T4, AChE (Homo sapiens, UniProt P22303); assay: Kinetic study of AChE inhibition, steady-state inhibition constants; format: biochemical; details: for αK i (noncompetitive inhibition constant), AChE / Ki: means ± SEM; for Ki: read-out: K i (competitive inhibition constant), AChE
T4 construct: purchased Sigma-Aldrich; Milamed, Perm, Russia (supplement); host or cells: human erythrocytes
Experimental: (§1) We assessed the mechanisms of AChE and BChE inhibition by performing a thorough analysis of enzyme kinetics. After a 5 min incubation at 25°C (for temperature equilibration) with three increasing concentrations of inhibitor and six decreasing substrate concentrations, the residual enzyme activity was measured as described above for enzymatic assays.

eqBChE = biological target: T5, eqBChE (Equus caballus, UniProt P81908); assay: Kinetic study of BChE inhibition, steady-state inhibition constants; format: biochemical; details: for αK i (noncompetitive inhibition constant), eqBChE / Ki: means ± SEM; for Ki: read-out: K i (competitive inhibition constant), eqBChE
T5 construct: purchased Sigma-Aldrich; Milamed, Perm, Russia (supplement); host or cells: horse serum
Experimental: as §1

[6] = equine serum BChE, mean ± SEM, n = 3

T5 sequence (P81908 whole entry): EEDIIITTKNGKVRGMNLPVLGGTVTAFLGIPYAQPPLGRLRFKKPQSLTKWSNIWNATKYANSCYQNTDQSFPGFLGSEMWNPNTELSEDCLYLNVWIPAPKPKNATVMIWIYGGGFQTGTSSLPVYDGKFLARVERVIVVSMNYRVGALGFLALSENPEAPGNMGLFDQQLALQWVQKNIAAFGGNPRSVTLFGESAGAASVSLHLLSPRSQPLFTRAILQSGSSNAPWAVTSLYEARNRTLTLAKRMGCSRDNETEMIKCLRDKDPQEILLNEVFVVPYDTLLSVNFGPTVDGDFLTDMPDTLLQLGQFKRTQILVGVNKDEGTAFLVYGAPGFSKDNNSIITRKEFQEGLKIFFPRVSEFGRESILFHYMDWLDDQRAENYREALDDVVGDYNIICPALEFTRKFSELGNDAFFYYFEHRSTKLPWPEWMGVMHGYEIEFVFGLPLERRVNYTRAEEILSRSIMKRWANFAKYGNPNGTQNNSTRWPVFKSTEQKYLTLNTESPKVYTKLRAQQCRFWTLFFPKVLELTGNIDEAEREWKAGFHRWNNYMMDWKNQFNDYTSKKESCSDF
T3 sequence (P81908 whole entry): as above
T1 sequence (P22303 32-617 isoform P22303-2 limits assumed): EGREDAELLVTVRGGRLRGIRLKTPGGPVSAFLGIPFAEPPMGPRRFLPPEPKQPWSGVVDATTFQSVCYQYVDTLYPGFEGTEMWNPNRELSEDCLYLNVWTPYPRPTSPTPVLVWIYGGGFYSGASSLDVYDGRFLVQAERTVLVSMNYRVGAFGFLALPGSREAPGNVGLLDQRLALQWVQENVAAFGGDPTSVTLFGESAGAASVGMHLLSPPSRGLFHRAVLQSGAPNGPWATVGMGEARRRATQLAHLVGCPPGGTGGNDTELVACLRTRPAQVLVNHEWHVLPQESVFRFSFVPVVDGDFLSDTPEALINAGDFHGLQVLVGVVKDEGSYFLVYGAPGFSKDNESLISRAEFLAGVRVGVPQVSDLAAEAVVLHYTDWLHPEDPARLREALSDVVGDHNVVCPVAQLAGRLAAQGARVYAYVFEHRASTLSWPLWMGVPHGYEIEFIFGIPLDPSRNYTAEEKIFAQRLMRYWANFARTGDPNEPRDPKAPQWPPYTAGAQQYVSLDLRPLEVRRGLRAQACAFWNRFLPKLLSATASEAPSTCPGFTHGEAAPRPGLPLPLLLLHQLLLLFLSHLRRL
T4 sequence (P22303 32-617 isoform P22303-2 limits assumed): as above
T2 sequence (O42275 24-633): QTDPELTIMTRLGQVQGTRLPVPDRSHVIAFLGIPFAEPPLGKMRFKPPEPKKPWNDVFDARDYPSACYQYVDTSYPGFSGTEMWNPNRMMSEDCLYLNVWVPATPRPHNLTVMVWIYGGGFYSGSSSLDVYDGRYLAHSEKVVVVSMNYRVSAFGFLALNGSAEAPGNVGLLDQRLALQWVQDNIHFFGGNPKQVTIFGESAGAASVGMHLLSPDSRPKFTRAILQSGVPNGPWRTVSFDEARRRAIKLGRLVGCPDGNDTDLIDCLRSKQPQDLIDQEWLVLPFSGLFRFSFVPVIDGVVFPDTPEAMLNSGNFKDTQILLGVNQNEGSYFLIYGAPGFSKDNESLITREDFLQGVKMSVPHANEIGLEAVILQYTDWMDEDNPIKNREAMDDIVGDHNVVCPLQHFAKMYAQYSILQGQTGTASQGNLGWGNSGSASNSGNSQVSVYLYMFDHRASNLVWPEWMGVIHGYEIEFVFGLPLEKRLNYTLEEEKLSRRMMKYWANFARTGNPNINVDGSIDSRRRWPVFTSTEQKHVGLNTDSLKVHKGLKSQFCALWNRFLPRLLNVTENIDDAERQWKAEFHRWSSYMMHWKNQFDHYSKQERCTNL
β‐amyloid (1–42) (Aβ42), sequence (P05067 672-713 limits assumed): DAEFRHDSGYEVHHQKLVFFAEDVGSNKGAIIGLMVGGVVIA

Compound | IC50 (human erythrocyte AChE) [µM] | IC50 [3] [µM] | ABTS^•+‐scavenging activity, TEAC [3] | inhibition at 100 µM (β‐amyloid (1–42) (Aβ42); Aβ42 50 µM, compound 100 µM) [%] | Propidium displacement, % [5] | Selectivity index IC50AChE/IC50BChE (equine serum BChE) | IC50 (equine serum BChE; [6]) [µM] | CES inhibition, % (porcine liver CES) | further results
O=C(NCCCCCCCCNc1c2c(nc3c1CCC3)CCCC2)c1ccccc1O [7c, N‐{8‐[(2,3,5,6,7,8‐hexahydro‐1H‐cyclopenta[b]quinolin‐9‐yl)amino]octyl}−2‐hydroxybenzamide] | 1.53 ± 0.03 | 19.4 ± 0.6 | 0.94 ± 0.04 | 74.1 ± 5.1 | 11.8 ± 0.8% | 138 | 0.0111 ± 0.0001 | 32.9 ± 0.9% | IC50 [1]: 3.62 ± 0.02 µM; IC50 [2]: 6.92 ± 1.22 µM; IC50 [4]: 7.99 ± 0.3 µM; BChE inhibition, times more effective than amiridine (equine serum BChE): 25 times; IC50 (equine serum BChE): 0.011 ± 0.0001 µM
Oc1ccccc1CNCCCCNc1c2c(nc3c1CCC3)CCCC2 [10a, 2‐[({4‐[(2,3,5,6,7,8‐Hexahydro‐1H‐cyclopenta[b]quinolin‐9‐yl)amino]butyl}amino)methyl]phenol] | 2.4 ± 0.15 | 10.1 ± 0.5 | 1.5 ± 0.08 | 30.5 ± 2.4 | 13.6 ± 0.9% | 12.1 | 0.198 ± 0.019 | 6.2 ± 0.5% | IC50 [1]: 4.49 ± 0.27 µM; IC50 [2]: 27.6 ± 1.3 µM; ABTS^•+‐scavenging activity, TEAC ([3]; listed as 10a as): 1.5; IC50 [4]: 90.8 ± 1.3 µM
O=C(NCCCCCCNc1c2c(nc3c1CCC3)CCCC2)c1ccccc1O [7b, N‐{6‐[(2,3,5,6,7,8‐Hexahydro‐1H‐cyclopenta[b]quinolin‐9‐yl)amino]hexyl}−2‐hydroxybenzamide] | 4.24 ± 0.08 | 17.6 ± 0.7 | 0.98 ± 0.04 | 53.4 ± 4.2 | 11.6 ± 0.9% | 193 | 0.022 ± 0.001 | 12.3 ± 1.2% | αK i (noncompetitive inhibition constant), AChE (AChE): 6.25 ± 0.44 µM; Ki (AChE): 2.6 ± 0.19 µM; αK i (noncompetitive inhibition constant), eqBChE (eqBChE): 19.2 ± 0.9 nM; Ki (eqBChE): 0.0142 ± 0.0011 µM
Oc1ccccc1C=NCCCCCCCCNc1c2c(nc3c1CCC3)CCCC2 [9c, 2‐[({8‐[(2,3,5,6,7,8‐Hexahydro‐1H‐cyclopenta[b]quinolin‐9‐yl)amino]octyl}imino)methyl]phenol] | 1.42 ± 0.14 | 29.6 ± 1.2 | 0.63 ± 0.02 | 71.7 ± 5.1 | 11.6 ± 0.9% | 56.8 | 0.025 ± 0.001 | 25.8 ± 0.7% | IC50 [1]: 22.2 ± 2.2 µM; IC50 [2]: 95.9 ± 5.4 µM; IC50 [4]: 63.5 ± 4.4 µM
O=C(O)c1ccccc1O [Salicylic acid, reference compound] |  |  | did not show activity |  |  |  |  | 8.9 ± 0.6% | 
Oc1ccccc1CNCCCCCCNc1c2c(nc3c1CCC3)CCCC2 [10b, 2‐[({6‐[(2,3,5,6,7,8‐Hexahydro‐1H‐cyclopenta[b]quinolin‐9‐yl)amino]hexyl}amino)methyl]phenol] | 1.19 ± 0.05 |  |  | 79.2 ± 5.5 |  |  | 0.0294 ± 0.0006 |  | Type of AChE inhibition (AChE; Lineweaver–Burk analysis): mixed type of inhibition; αK i (noncompetitive inhibition constant), AChE (AChE): 1.50 ± 0.03 µM; Ki (AChE): 0.656 ± 0.011 µM; Type of BChE inhibition (eqBChE; Lineweaver–Burk analysis): mixed type of inhibition; αK i (noncompetitive inhibition constant), eqBChE (eqBChE): 45.4 ± 4.1 nM; Ki (eqBChE): 0.021 ± 0.0006 µM
CCCCCCNCc1ccccc1O [compound 13, 2‐[(hexylamino)methyl]phenol] |  | 10.7 ± 0.4 | 1.52 ± 0.07 |  |  |  |  | 14.8 ± 0.5% | inhibition at 20 µM (human erythrocyte AChE): 14 ± 0.6%; inhibition at 20 µM (equine serum BChE): 26.9 ± 0.5%
Oc1ccccc1C=NCCCCCCNc1c2c(nc3c1CCC3)CCCC2 [9b, 2‐[({6‐[(2,3,5,6,7,8‐Hexahydro‐1H‐cyclopenta[b]quinolin‐9‐yl)amino]hexyl}imino)methyl]phenol] |  |  |  |  |  |  |  |  | αK i (noncompetitive inhibition constant), AChE (AChE): 4.98 ± 0.33 µM; Ki (AChE): 1.76 ± 0.12 µM; αK i (noncompetitive inhibition constant), eqBChE (eqBChE): 89.0 ± 7.1 nM; Ki (eqBChE): 0.0501 ± 0.0048 µM
CC[N+](C)(CC)CCC[n+]1c(-c2ccccc2)c2cc(N)ccc2c2ccc(N)cc21.[I-].[I-] [Propidium iodide, reference compound] |  |  |  |  |  |  |  |  | Inhibition of Aβ42 self‐aggregation, % (β‐amyloid (1–42) (Aβ42); Aβ42 50 µM, compound 100 µM): 90.7 ± 7.1%
COc1cc2c(cc1OC)C(=O)C(CC1CCN(Cc3ccccc3)CC1)C2 (stereo not drawn) [Donepezil, reference compound] |  |  |  |  |  |  |  | n.а. | inhibition at 100 µM (β‐amyloid (1–42) (Aβ42)): 90.7 ± 7.1%
CCCCCCNc1c2c(nc3c1CCC3)CCCC2 [compound 11, N‐hexyl‐2,3,5,6,7,8‐hexahydro‐1H‐cyclopenta[b]quinolin‐9‐amine] | 4.3 ± 0.32 |  |  |  |  | 16.4 | 0.262 ± 0.008 | 5.6 ± 0.6% | 
CCCCCCN=Cc1ccccc1O [compound 12, 2‐[(hexylimino)methyl]phenol] |  | 93.3 ± 4.1 | 0.15 ± 0.008 |  |  |  |  | 1.9 ± 0.1% | AChE inhibition, % (human erythrocyte AChE; % inhibition at 20 μM, n.a. = not active): n.а.; inhibition at 20 µM (equine serum BChE): 10.6 ± 0.1%
O=[N+]([O-])c1ccc(OP(=O)(O)Oc2ccc([N+](=O)[O-])cc2)cc1 [BNPP, Bis‐4‐nitrophenyl phosphate, reference compound] |  |  |  |  | n.а. |  |  |  | AChE inhibition, % (human erythrocyte AChE; 20 µM): n.а.; Inhibition of Aβ42 self‐aggregation, % (β‐amyloid (1–42) (Aβ42); Aβ42 50 µM, compound 100 µM): n.а.; BChE inhibition, % (equine serum BChE; 20 µM): n.а.
O=c1c(O)c(-c2cc(O)c(O)c(O)c2)oc2cc(O)cc(O)c12 [Myricetin, reference compound] |  |  |  | 79.4 ± 6.3 |  |  |  |  | 
Cc1c(C)c2c(c(C)c1O)CCC(C)(C(=O)O)O2 (stereo not drawn) [Trolox, 6-hydroxy-2,5,7,8-tetramethychroman-2-carboxylic acid, reference compound] |  | 19.7 ± 1.4 | 1.0 |  |  |  |  |  | 
